These results are taken from patent US12478608B2, “Use of slow-releasing hydrogen sulfide organic donor ADT-OH in the preparation of drugs for treating nervous system diseases” (SOOCHOW UNIVERSITY, priority 2021, dated 2025).

Format in all cases: cell-based, mouse
The subject of test [1] is neural precursor cells. As to the kind of experiment: Differentiation of neural precursor cells into neurons (Tuj1 immunofluorescence) and axonal length. The conditions noted are these: ADT-OH 80 μmol/L; 5 days in differentiation medium. From the text: (§1) • (1) Adult ICR mice (male:female 2:1) were allowed to mate randomly. At 8:00 every night, the male and female mice were co-caged. […] On day 14.5 of pregnancy of the mice, neural precursor cells were extracted.
C57BL/6J mice at day 14.5 of pregnancy were anesthetized with 4% chloral hydrate by intraperitoneal injection. The abdominal cavity of the pregnant mice was opened using sterile surgical scissors and surgical forceps, the uterus of the pregnant mice was opened and the fetal brain was taken out. The fetal brain tissue in the subventricular zone was isolated under a stereomicroscope, digested with 0.05% trypsin in a water bath at 37° C. for 10 min, and then terminated with a neural precursor cell culture medium (containing DMEM-F12 medium 39.2 ml, 1×B27 800 ul, 0.2 mg/ml bEGF 4 ul, and 0.2 mg/ml FGF 8 ul), and then gently blown into individual cells. The cells were centrifuged at 700 rcf for 5 min and the supernatant was discarded. The neural precursor cell culture medium was added, and the cells were inoculated and cultured in a 24-well cell culture plate. […]
(§2) The cultured cells were fixed with 4% PFA for 15 min, and washed three times with 0.01 M PBS, and then immunofluorescence staining was performed with Tuj1, GFAP, MBP, and caspase3 antibodies. The plate was blocked with a DAPI-containing blocking agent (Vector Labs, H-1400), observed and photographed under a Zeiss fluorescence microscope. Tuj1-positive neurons GFAP-positive astrocytes, MBP-positive oligodendrocytes and DAPI-positive cells were counted using ImageJ and adobe photoshop, respectively. The rate of positive cells to all DAPI-positive cells was calculated. • (2) The cells were fixed with 4% PFA after 5 days of differentiation in the differentiation medium, and immunofluorescently stained with the neuron-specific antibody Tuj1. After staining, images were collected under a fluorescence microscope, and the rates of neurons to all DAPI-positive cells in each group were statistically calculated.

The subject of test [2] is neural precursor cells. Kind of test: Differentiation of neural precursor cells into oligodendrocytes (MBP immunofluorescence). The conditions noted are these: ADT-OH 80 μmol/L; 5 days in differentiation medium.
Source text: as §1
(§3) C57BL/6J mice at day 14.5 of pregnancy were anesthetized with 4% chloral hydrate by intraperitoneal injection. The abdominal cavity of the pregnant mice was opened using sterile surgical scissors and surgical forceps, the uterus of the pregnant mice was opened and the fetal brain was taken out. […]
as §2, with “After staining, images were collected under a fluorescence microscope, and the rates of neurons to all DAPI-positive cells in each group were statistically calculated.” left out
The rate of MBP positive cells to all DAPI-positive cells was statistically calculated.

Test [3] relates to neural precursor cells. As to the kind of experiment: Differentiation of neural precursor cells into astrocytes (GFAP immunofluorescence). The settings on record: ADT-OH 80 μmol/L; 8 days in differentiation medium.
Source text: as §1, §3
as §2, with “After staining, images were collected under a fluorescence microscope, and the rates of neurons to all DAPI-positive cells in each group were statistically calculated.” left out
The rate of GFAP positive cells to DAPI-positive cells was statistically calculated.

Test [4] deals with neural precursor cells. As to the kind of experiment: Apoptosis of neural precursor cells (caspase3 staining). The conditions noted are these: ADT-OH 80 μmol/L. How it is done:
The isolated primary neural precursor cells were cultured for 3-4 days, and the neurospheres were blown into individual cells. and inoculated in a 24-well cell culture plate lined with adhesive glass discs. The cells were grown in neural precursor cell culture medium supplemented with ADT-OH (80 μmol/L) or control solute DMSO for 3 days, respectively, and then stained with apoptosis-specific antibody caspase3. Images were collected under a fluorescence microscope, and • the rate of caspase3 positive cells to all DAPI-positive cells were statistically calculated.

Regarding `Oc1ccc(-c2cc(=S)ss2)cc1` [ADT-OH, 5-(p-hydroxyphenyl)-1,2-dithione-3-thione], in test [1], the “axons of neurons (axonal length) compared with the DMSO control group” value is reported as “longer axons”; the “differentiation into neurons (Tuj1-positive cells to all DAPI-positive cells) compared with the DMSO control group” value is reported as “more cells are differentiated into neurons”; the “rate of differentiation into neurons, increase compared with the DMSO control group” value is 57.69%. In test [2], the “differentiation into oligodendrocytes (MBP positive cells to all DAPI-positive cells) compared with the DMSO control group” value was “more cells are differentiated into oligodendrocytes” and the “rate of differentiation into oligodendrocytes, increase compared with the DMSO control group” value was determined as 87.5%. Moreover, in test [3], the “differentiation into astrocytes (GFAP positive cells to DAPI-positive cells) compared with the DMSO control group” value was “fewer cells in the ADT-OH group are differentiated into astrocytes” and the “rate of differentiation into astrocytes, reduction compared with the DMSO control group” value was 69.2%. For the same molecule, in test [4] (3 days), the “apoptosis, reduction compared with the DMSO control group” value is given as 44.8%. Further, in test [4] (3 days in neural precursor cell culture medium), the “apoptotic cells (caspase3 positive cells to all DAPI-positive cells) compared with the DMSO control group” value was “fewer cells are apoptotic”.
